Data: US7736881B2, “Antibacterial and herbicidal compounds and system for screening the same” (University of Utah Research Foundation, priority 2000, dated 2010)
Entries after “also recorded” stand apart in the source; their conditions may differ.

Columns and labels:
[1] = test system: Strain JC7623 dxs::pCAT53-3 transformed with pLME10 (R. capsulatus dxsB in pET11-A); experiment: Screen for antimicrobial agent using strain JC7623 dxs::pCAT53-3 transformed with pLME10 (plate growth); assay type: cell-based, E. coli
[2] = test system: Strain RMC25 electroporated with pLME10 (R. capsulatus dxsB in pET11-A); experiment: Screen for antimicrobial agent using strain RMC25 electroporated with pLME10 (plate growth); assay type: cell-based, S. typhimurium
[3] = LB/kan/ME/fosmidomycin, fosmidomycin ~4 μg/mL, ME 50 mg/L, after 1 day
[4] = after 2.5 days, fosmidomycin ~4 μg/mL, ME 50 mg/L

With `O=CN(O)CCCP(=O)(O)O` [fosmidomycin] the “growth on Plate F” value [1] was “microcolonies”, the “growth on plate F compared with plate C (LB/kan/MVA/arabinose without fosmidomycin)” value [1] was “equal” and the “growth on Plate E” value ([1]; LB/ka/IPTG/fosmidomycin, fosmidomycin ~4 μg/mL, IPTG 1 mM, after 2.5 days) was “no growth”. The “growth on Plate G” value [1, 3] was “colonies”, the “growth on plate G compared with plate D (LB/kan/ME without fosmidomycin)” value [1, 4] was “equal” and the “growth on Plate F” value [2] was “colonies”. For the same compound, the “growth on plate F compared with plate C (LB/kan/MVA/arabinose without fosmidomycin)” value [2] was “equal”, the “growth on Plate E” value ([2]; LB/kan/IPTG/fosmidomycin, fosmidomycin ~4 μg/mL, IPTG 1 mM, after 2.5 days) was “no growth; also recorded: growth is inhibited” and the “growth on Plate G” value [2, 3] was “colonies”. The “growth on plate G compared with plate D (LB/kan/ME without fosmidomycin)” value [2, 4] was “equal”.
